{
  "source": "paper PMC5926424",
  "about": "(Japanese Journal of Cancer Research : Gann, 2000)",
  "key": {"LDL": {"tested_on": "LDL", "conditions": "cited from earlier work"}, "albumin": {"tested_on": "albumin", "conditions": "cited from earlier work"}, "HDL": {"tested_on": "HDL", "conditions": "cited from earlier work"}, "T.Tn cells": {"tested_on": "T.Tn cells", "format": "cell-based", "conditions": "for ATX-S10(Na) uptake: 3 h"}, "[1]": {"conditions": "T.Tn cells, 50 μg/ml ATX-S10(Na), 10% FCS, 37C, Fig. 4"}},
  "note": "Read-outs that look alike come from different tables or passages of the source.",
  "data": [
    {"smiles": "C=Cc1c(C)c2cc3nc(c(CC(=O)N[C@@H](CC(=O)O)C(=O)O)c4[nH]c(cc5nc(cc1[nH]2)C(C)=C5CC)c(C)c4C(=O)O)[C@@H](CCC(=O)O)[C@@H]3C", "note": "[NPe6, N-aspartyl chlorin-e6]", "values": [
      {"measurement": "Fraction bound to LDL", "setting": "LDL", "value": 1, "unit": "%"},
      {"measurement": "Fraction bound to albumin", "setting": "albumin", "value": 80, "unit": "%"},
      {"measurement": "Fraction bound to HDL", "setting": "HDL", "value": 19, "unit": "%"}
    ]},
    {"smiles": "CCCN(CCC)S(=O)(=O)c1ccc(C(=O)O)cc1", "note": "[Probenecid]", "values": [
      {"measurement": "ATX-S10(Na) uptake", "setting": "T.Tn cells; 30 µM", "value": "112.3 % of control"},
      {"measurement": "ATX-S10(Na) uptake", "setting": "T.Tn cells; 100 µM", "value": "105.5 % of control"},
      {"measurement": "ATX-S10(Na) uptake", "setting": "T.Tn cells; 300 µM", "value": "113.1 % of control"},
      {"measurement": "ATX-S10(Na) uptake", "setting": "T.Tn cells; 1000 µM", "value": "115.7 % of control"}
    ]},
    {"smiles": "CCN(CC)CCCC(C)Nc1ccnc2cc(Cl)ccc12", "note": "(stereo not shown) [chloroquine]", "values": [
      {"measurement": "Effect of endocytosis inhibitor on cellular uptake of ATX-S10(Na)", "setting": "T.Tn cells", "value": "partially but significantly inhibited"}
    ]},
    {"smiles": "CC[C@@]1([C@@H]2O[C@@H]([C@H]3O[C@@](O)(CO)[C@H](C)C[C@@H]3C)C[C@@H]2C)CC[C@H]([C@]2(C)CC[C@]3(C[C@H](O)[C@@H](C)[C@@H]([C@@H](C)[C@@H](OC)[C@H](C)C(=O)O)O3)O2)O1", "note": "[monensin]", "values": [
      {"measurement": "Effect of endocytosis inhibitor on cellular uptake of ATX-S10(Na)", "setting": "T.Tn cells; [1]", "value": "partially but significantly inhibited"}
    ]},
    {"smiles": "O=CC(=O)c1ccccc1", "note": "[phenylglyoxal]", "values": [
      {"measurement": "Effect of endocytosis inhibitor on cellular uptake of ATX-S10(Na)", "setting": "T.Tn cells; [1]", "value": "partially but significantly inhibited"}
    ]}
  ]
}
